This is an account of results in ChEMBL document CHEMBL3045550, “Design, synthesis and biological activities of new strobilurin derivatives containing substituted pyrazoles” (2010).

What all share (format): functional
Experiment [1] relates to Tetranychus cinnabarinus. In words: Acaricidal activity against Tetranychus cinnabarinus (carmine spider mite) in kidney bean plants assessed as mortality at 38 mg/l after 48 hr relative to control.
For experiment [2], the system named is Tetranychus cinnabarinus. In words: Acaricidal activity against Tetranychus cinnabarinus (carmine spider mite) in kidney bean plants assessed as mortality at 150 mg/l after 48 hr relative to control.
In experiment [3] the test system is Tetranychus cinnabarinus. In words: Acaricidal activity against Tetranychus cinnabarinus (carmine spider mite) in kidney bean plants assessed as mortality at 600 mg/l after 48 hr relative to control.
Experiment [4] deals with Blumeria graminis f. sp. tritici. The experiment in a line: Antifungal activity against Blumeria graminis f. sp. tritici infected seven-day-old wheat seedlings assessed as disease control at 1.56 mg/l after 7 days relative to control.
Experiment [5] has the same test system. In words: Antifungal activity against Blumeria graminis f. sp. tritici infected seven-day-old wheat seedlings assessed as disease control at 12.5 mg/l after 7 days relative to control.
For experiment [6] the test system is unchanged. The experiment in a line: Antifungal activity against Blumeria graminis f. sp. tritici infected seven-day-old wheat seedlings assessed as disease control at 400 mg/l after 7 days relative to control.
Experiment [7] has as its system Pseudoperonospora cubensis. The experiment in a line: Antifungal activity against Pseudoperonospora cubensis infected cucumber leaves assessed as disease control at 3.12 mg/l after 5 days relative to control.
Experiment [8] concerns Pseudoperonospora cubensis. The experiment in a line: Antifungal activity against Pseudoperonospora cubensis infected cucumber leaves assessed as disease control at 6.25 mg/l after 5 days relative to control.
The test system of experiment [9] is Pseudoperonospora cubensis. In words: Antifungal activity against Pseudoperonospora cubensis infected cucumber leaves assessed as disease control at 25 mg/l after 5 days relative to control.
The test system of experiment [10] is Pseudoperonospora cubensis. In words: Antifungal activity against Pseudoperonospora cubensis infected cucumber leaves assessed as disease control at 400 mg/l after 5 days relative to control.
In a further experiment the test system is Botrytis cinerea. The experiment in a line: Antifungal activity against Botryotinia fuckeliana infected cucumber leaves assessed as disease control at 400 mg/l after 4 days relative to control.
The subject of the next experiment is Pyricularia oryzae. The experiment in a line: Antifungal activity against Magnaporthe oryzae infected 12 day old rice plant assessed as disease control at 400 mg/l after 6 days relative to control.

On to `CO/C=C(/C(=O)OC)c1ccccc1COc1c(C)c(-c2ccc(OC)cc2)nn1C` [METHYL 3-METHOXY-2-(2-((3-(4-METHOXYPHENYL)-1,4-DIMETHYL-1H-PYRAZOL-5-YLOXY)METHYL)PHENYL)ACRYLATE], for which the Activity in the experiment with Tetranychus cinnabarinus [1] is 0%; with Tetranychus cinnabarinus [2], 0%; in the experiment on Tetranychus cinnabarinus [3], 90%; in [4], 95%; in experiment [5], 100%; in [6], 100%. For the same molecule, the Activity in [7] stood at 55%; in [8], 96%; in experiment [9], 100%; in experiment [10], 100%; in the experiment with Botrytis cinerea it was 100%; with Pyricularia oryzae, 100%.

For `CO/C=C(/C(=O)OC)c1ccccc1COc1cc(-c2ccccc2Cl)nn1C`, the Activity was 0% in the experiment on Tetranychus cinnabarinus [1]; 0% in the experiment with Tetranychus cinnabarinus [2]; 100% with Tetranychus cinnabarinus [3]; 40% in [4]; 100% in experiment [5]; 100% in experiment [6]. Besides, the Activity in experiment [7] stood at 0%; in [8], 0%; in experiment [9], 100%; in [10], 100%; with Botrytis cinerea it was 0%; in the experiment on Pyricularia oryzae it was 0%.

Turning to `CO/C=C(/C(=O)OC)c1ccccc1COc1cc(-c2ccc(C)c(C)c2)nn1C` [METHYL 2-(2-((3-(3,4-DIMETHYLPHENYL)-1-METHYL-1H-PYRAZOL-5-YLOXY)METHYL)PHENYL)-3-METHOXYACRYLATE], the Activity came to 0% with Tetranychus cinnabarinus [1]; 0% in the experiment on Tetranychus cinnabarinus [2]; 100% with Tetranychus cinnabarinus [3]; 80% in experiment [4]; 100% in [5]; 100% in experiment [6]. Also, the Activity in [7] worked out at 35%; in [8], 40%; in [9], 100%; in experiment [10] it was 100%; with Botrytis cinerea, 50%; with Pyricularia oryzae, 100%.

Take `CO/C=C(/C(=O)OC)c1ccccc1COc1c(C)c(-c2ccc(C(C)(C)C)cc2)nn1C` [METHYL 2-(2-((3-(4-TERT-BUTYLPHENYL)-1,4-DIMETHYL-1H-PYRAZOL-5-YLOXY)METHYL)PHENYL)-3-METHOXYACRYLATE]: the Activity with Tetranychus cinnabarinus [1] is 0%; in the experiment with Tetranychus cinnabarinus [2], 0%; in the experiment on Tetranychus cinnabarinus [3] it was 100%; in experiment [4], 0%; in experiment [5], 10%; in experiment [6], 90%. The Activity came to 0% in [7]; 0% in [8]; 20% in experiment [9]; 95% in experiment [10]; 50% with Botrytis cinerea; 50% in the experiment on Pyricularia oryzae.

`CO/C=C(/C(=O)OC)c1ccccc1COc1c(C)c(-c2ccccc2)nn1C`: the Activity in the experiment on Tetranychus cinnabarinus [1] is on record as 0%; with Tetranychus cinnabarinus [2] it was 0%; in the experiment with Tetranychus cinnabarinus [3], 100%; in experiment [4] it was 55%; in experiment [5] it was 100%; in experiment [6] it was 100%. The Activity in experiment [7] turned out to be 40%; in [8] it was 60%; in [9], 100%; in [10], 100%; in the experiment with Botrytis cinerea it was 0%; in the experiment on Pyricularia oryzae it was 0%.

As for `CO/C=C(/C(=O)OC)c1ccccc1COc1c(C)c(-c2cc(C)ccc2C)nn1C` [METHYL 2-(2-((3-(2,5-DIMETHYLPHENYL)-1,4-DIMETHYL-1H-PYRAZOL-5-YLOXY)METHYL)PHENYL)-3-METHOXYACRYLATE], the Activity with Tetranychus cinnabarinus [1] worked out at 0%; in the experiment on Tetranychus cinnabarinus [2], 20%; with Tetranychus cinnabarinus [3] it was 100%; in [4], 0%; in experiment [5] it was 50%; in experiment [6], 100%. For the same molecule, the Activity in experiment [7] was 0%; in experiment [8], 0%; in [9], 80%; in experiment [10] it was 100%; in the experiment on Botrytis cinerea, 50%; in the experiment on Pyricularia oryzae, 100%.

On to `CO/C=C(/C(=O)OC)c1ccccc1COc1c(C)c(-c2ccc(C)cc2)nn1C` [METHYL 2-(2-((1,4-DIMETHYL-3-P-TOLYL-1H-PYRAZOL-5-YLOXY)METHYL)PHENYL)-3-METHOXYACRYLATE], for which the Activity amounted to 0% in the experiment on Tetranychus cinnabarinus [1]; 0% in the experiment on Tetranychus cinnabarinus [2]; 100% in the experiment with Tetranychus cinnabarinus [3]; 45% in experiment [4]; 100% in experiment [5]; 100% in experiment [6]. Besides, the Activity in experiment [7] was found to be 40%; in [8], 75%; in [9], 100%; in experiment [10], 100%; in the experiment on Botrytis cinerea it was 0%; in the experiment with Pyricularia oryzae, 0%.

In the case of `CO/C=C(/C(=O)OC)c1ccccc1COc1cc(-c2ccc(Br)cc2)nn1C` [METHYL 2-(2-((3-(4-BROMOPHENYL)-1-METHYL-1H-PYRAZOL-5-YLOXY)METHYL)PHENYL)-3-METHOXYACRYLATE], the Activity in the experiment with Tetranychus cinnabarinus [1] worked out at 57%; in the experiment on Tetranychus cinnabarinus [2], 71%; with Tetranychus cinnabarinus [3], 100%; in experiment [4] it was 10%; in [5], 100%; in [6], 100%. Besides, the Activity in [7] is reported as 60%; in experiment [8], 85%; in [9] it was 100%; in [10] it was 100%; with Botrytis cinerea, 0%; in the experiment with Pyricularia oryzae it was 70%.

In the case of `CO/C=C(/C(=O)OC)c1ccccc1COc1cc(-c2ccc(Cl)cc2)nn1C` [PYRAOXYSTROBIN], the Activity in the experiment on Tetranychus cinnabarinus [1] came out at 0%; in the experiment on Tetranychus cinnabarinus [2], 0%; in the experiment with Tetranychus cinnabarinus [3] it was 100%; in experiment [4] it was 0%; in experiment [5] it was 75%; in [6], 100%. The Activity (in [7]; in experiment [8]; in experiment [9]; in experiment [10]; in the experiment with Botrytis cinerea; in the experiment on Pyricularia oryzae) was 100% throughout.

Regarding `CCc1ccc(-c2nn(C)c(OCc3ccccc3/C(=C\OC)C(=O)OC)c2C)cc1` [METHYL 2-(2-((3-(4-ETHYLPHENYL)-1,4-DIMETHYL-1H-PYRAZOL-5-YLOXY)METHYL)PHENYL)-3-METHOXYACRYLATE], the Activity with Tetranychus cinnabarinus [1] was determined as 30%; with Tetranychus cinnabarinus [2] it was 100%; in the experiment with Tetranychus cinnabarinus [3] it was 100%; in experiment [4], 0%; in experiment [5], 100%; in experiment [6], 100%. Moreover, the Activity amounted to 20% in experiment [7]; 60% in experiment [8]; 100% in [9]; 100% in experiment [10]; 0% with Botrytis cinerea; 0% with Pyricularia oryzae.

Turning to `CCOc1ccc(-c2nn(C)c(OCc3ccccc3/C(=C\OC)C(=O)OC)c2C)cc1` [METHYL 2-(2-((3-(4-ETHOXYPHENYL)-1,4-DIMETHYL-1H-PYRAZOL-5-YLOXY)METHYL)PHENYL)-3-METHOXYACRYLATE], the Activity with Tetranychus cinnabarinus [1] is recorded as 20%; with Tetranychus cinnabarinus [2] it was 35%; in the experiment with Tetranychus cinnabarinus [3] it was 100%; in experiment [4], 65%; in [5], 100%; in experiment [6] it was 100%. For the same molecule, the Activity in experiment [7] was found to be 0%; in experiment [8] it was 0%; in [9], 50%; in experiment [10], 100%; with Botrytis cinerea, 100%; in the experiment with Pyricularia oryzae, 100%.

Regarding `CO/C=C(/C(=O)OC)c1ccccc1COc1cc(-c2ccc(C)cc2C)nn1C` [METHYL 2-(2-((3-(2,4-DIMETHYLPHENYL)-1-METHYL-1H-PYRAZOL-5-YLOXY)METHYL)PHENYL)-3-METHOXYACRYLATE], the Activity was determined as 0% in the experiment with Tetranychus cinnabarinus [1]; 0% in the experiment with Tetranychus cinnabarinus [2]; 100% in the experiment with Tetranychus cinnabarinus [3]; 80% in experiment [4]; 100% in experiment [5]; 100% in experiment [6]. The Activity in experiment [7] is reported as 20%; in experiment [8] it was 70%; in [9] it was 100%; in [10], 100%; in the experiment with Botrytis cinerea, 50%; in the experiment with Pyricularia oryzae it was 100%.

For `CO/C=C(/C(=O)OC)c1ccccc1COc1c(C)c(-c2ccc(C)c(C)c2)nn1C` [METHYL 2-(2-((3-(3,4-DIMETHYLPHENYL)-1,4-DIMETHYL-1H-PYRAZOL-5-YLOXY)METHYL)PHENYL)-3-METHOXYACRYLATE], the Activity in the experiment with Tetranychus cinnabarinus [1] was 0%; with Tetranychus cinnabarinus [2], 80%; with Tetranychus cinnabarinus [3] it was 100%; in experiment [4], 70%; in [5], 100%; in experiment [6] it was 100%. The Activity in experiment [7] is 30%; in experiment [8] it was 85%; in [9], 100%; in [10], 100%; in the experiment with Botrytis cinerea, 50%; with Pyricularia oryzae, 100%.
